According to patent publication US20230312587A1, “PTERIDINONE COMPOUNDS AND USES THEREOF” (Vertex Pharmaceutical Incorporated, priority 2018, published 2023):
Where two headings read alike, the source gives them in different places.

What was measured:
[1] = target: HEK293 membranes over-expressing WFS-1 (Homo sapiens (Human), UniProt O76024); assay: Radioligand displacement assay (tritiated Compound 136 probe); type: binding; settings: displacement of tritiated Compound 136
Procedure, shortened: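 WFS-1-overexpressing HEK293 membranes were preincubated 10 min with compound, then tritiated probe was added for 90 min at room temperature. Bound probe was collected by filtration on PEI-pretreated GF/B filters, washed and scintillation-counted. IC50 came from a 3-parameter fit of bound probe vs compound concentration.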

[2] = system: Hek293 WFS1 over-expressor; assay: In vitro cell viability (CellTiter-Glo), Hek293 WFS1 over-expressor; type: cell-based; settings: read-out: Hek293 WFS1 viability
Protocol: WFS1 cDNA is amplified from clone RC202901 (Origene Technologies) with primers 5′-TCCGCGGCCCCAAGCTTATCGCCATGGACTCCAACACTGC-3′ (SEQ ID NO: 1), 5′-GATGGGCCCAGATCTCGAGTCAGGCCGCCGACAGGAATG-3′ (SEQ ID NO: 2) and cloned into a retroviral mammalian expression vector pCLPCX using HD Infusion (CLONTECH) at Hind3-Xhol sites using standard procedures. The resulting clone is identified as pCLPCX_WFS1.
HEK293 (ATCC, catalog #CRL-1573) cells are plated in 10 cm dishes (Corning, product #430167) into 10 mL of complete DMEM cell culture media [DMEM (Life Technologies, product #11960-051) media supplemented with 10% FBS (Hyclone, catalog #SH30071.03), antimycotic/antibiotic (Life Technologies, product #15240-062), and Glutamax (Life Technologies, product #35050-061)] at 3×10^6 cells per dish. Cells are allowed to attach and grow overnight at 37° C. in humidified 5% CO2. Cells are co-transfected with pVSV-G, pCMV-Gag/Pol and pCLPCX_WFS1 using Fugene 6 (Promega, catalog #E2691) according to manufacturer's protocol. Separately, cells are co-transfected with pVSV-G, pCMV-Gag/Pol and pCLPCX to produce control retrovirus. Cell culture media containing retrovirus (viral supernatant) is collected at 48 and 72 hours following transfection, filtered through a 0.4 uM filter, and stored at −80° C.
HEK293 cells are plated in 6 well plates (Corning, product #3516) in 2 mL of complete DMEM cell culture media at 1×10^5 cells well and allowed to attach and grow overnight at 37° C. in humidified 5% CO2. The following day, the media is replaced with viral supernatant to which 10 ug/ml of Polybrene® (Santa Cruz Biotech, catalog #sc-134220) is added. Viral supernatant is replaced 24 hours later with complete DMEM media. Transduced cells are selected in complete DMEM cell culture media containing 1 microgram/mL of puromycin (Life Technologies, catalog #A1113803).
HEK293 cells containing empty pCLPCx vector (HEK293 empty), HEK293 cells stably over-expression WFS1 (HEK293 WFS1), HepG2, and HepG2 cells where WFS1 was depleted via CRISPR/Cas9 (HepG2 WFS1 KO) cells were plated into 96-well black plates (Corning, product #3904) in 100 microliters of complete DMEM cell culture media [DMEM (Life Technologies, product #11960-051) media supplemented with 10% FBS (Hyclone, catalog #SH30071.03), antimycotic/antibiotic (Life Technologies, product #15240-062), and Glutamax (Life Technologies, product #35050-061)] at 1,000 (HEK293) or 5,000 (HepG2) cells per well. Cells were allowed to attach and grow overnight, after which compounds are added at various concentrations. Cell viability was assessed 96 hrs after compound addition with CellTiter-Glo reagent (Promega, catalog #G7570) according to manufacturer's protocol and measurement on a Pherastar luminescence plate reader (BMG Labtech).
The IC50s for the viability of both the Hek293 empty vector and WFS1 over-expressing cells are summarized in Table 47: A<0.06 μM; 0.06 μM≤B<0.6 μM; 0.6 μM≤C<3.0 μM; D≥3.0 μM.

[3] = Homo sapiens, HEK293, Hek293 WFS1 over-expressing cells

HEK293 membranes over-expressing WFS-1, sequence (O76024 whole entry): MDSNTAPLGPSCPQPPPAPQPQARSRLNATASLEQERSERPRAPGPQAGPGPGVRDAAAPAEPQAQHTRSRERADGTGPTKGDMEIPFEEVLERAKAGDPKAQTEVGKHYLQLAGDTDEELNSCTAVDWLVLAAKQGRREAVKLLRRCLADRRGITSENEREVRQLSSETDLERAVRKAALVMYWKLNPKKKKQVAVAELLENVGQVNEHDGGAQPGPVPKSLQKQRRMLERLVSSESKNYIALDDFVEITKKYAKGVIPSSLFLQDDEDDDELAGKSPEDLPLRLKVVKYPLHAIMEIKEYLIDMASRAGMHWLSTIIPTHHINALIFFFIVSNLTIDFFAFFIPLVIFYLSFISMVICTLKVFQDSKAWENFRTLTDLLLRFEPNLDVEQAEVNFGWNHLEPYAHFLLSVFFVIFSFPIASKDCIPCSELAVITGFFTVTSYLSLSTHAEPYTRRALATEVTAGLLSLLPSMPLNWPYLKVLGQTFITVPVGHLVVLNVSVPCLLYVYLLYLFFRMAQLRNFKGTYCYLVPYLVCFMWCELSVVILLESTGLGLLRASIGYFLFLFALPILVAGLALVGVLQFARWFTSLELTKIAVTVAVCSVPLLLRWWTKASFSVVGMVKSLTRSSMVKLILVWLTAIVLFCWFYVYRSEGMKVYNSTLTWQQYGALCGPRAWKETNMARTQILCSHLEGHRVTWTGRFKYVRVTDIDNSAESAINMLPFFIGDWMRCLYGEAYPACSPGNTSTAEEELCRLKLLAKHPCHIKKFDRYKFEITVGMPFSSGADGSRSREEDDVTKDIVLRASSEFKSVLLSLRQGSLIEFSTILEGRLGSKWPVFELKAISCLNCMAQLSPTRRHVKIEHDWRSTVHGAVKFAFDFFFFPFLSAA

Row | Compound | IC50 [1] [µM] | IC50 [2, 3] [µM] | IC50 ([2]; Hek293 WFS1 over-expressing cells) [µM]
1 | Cc1nc(NCc2cnn(Cc3cc(C(F)(F)F)nn3C)c2)nc2c1NC(=O)[C@H](C1CC1)N2C [Compound 396, (7S)-7-Cyclopropyl-4,8-dimethyl-2-(((1-((1-methyl-3-(trifluoromethyl)-1H-pyrazol-5-yl)methyl)-1H-pyrazol-4-yl)methyl)amino)-7,8-dihydropteridin-6(5H)-one] | 0.06 to 0.6 | < 0.06 | –
2 | Cc1nc(N[C@@H]2CC[C@@H](n3ccc(C(F)(F)F)n3)C2)nc2c1NC(=O)[C@H](C)N2C (single isomer, unassigned) [Compound 311] | 0.06 to 0.6 | < 0.06 | –
3 | Cc1nc(N[C@H]2CC[C@H](Oc3ccc(C(F)(F)F)nc3)C2)nc2c1NC(=O)[C@H](C)N2C (single isomer, unassigned) [Compound 377] | < 0.06 | – | < 0.06
4 | Cc1nc(N[C@H]2C[C@H](COc3cc(F)c(F)c(F)c3)C2)nc2c1NC(=O)[C@H](C)N2C [Compound 258, (7S)-4,7,8-trimethyl-2-((trans-3-((3,4,5-trifluorophenoxy)methyl)-cyclobutyl)amino)-7,8-dihydropteridin-6(5H)-one] | 0.06 to 0.6 | 0.06 to 0.6 | –
5 | Cc1nc(NCc2cnn(Cc3ccc(C(F)(F)F)nc3)c2)nc2c1NC(=O)[C@H](C)N2C(C)C [Compound 385, (7S)-8-isopropyl-4,7-dimethyl-2-(((1-((6-(trifluoromethyl)pyridin-3-yl)methyl)-1H-pyrazol-4-yl)methyl)amino)-7,8-dihydropteridin-6(5H)-one] | < 0.06 | < 0.06 | –
6 | CN1C(=O)C(C)(C)N(C)c2nc(NCc3cnn(Cc4cccnc4C(F)(F)F)c3)ncc21 [Compound 237, 5,7,7,8-Tetramethyl-2-(((1-((2-(trifluoromethyl)pyridin-3-yl)methyl)-1H-pyrazol-4-yl)methyl)amino)-7,8-dihydropteridin-6(5H)-one] | 0.06 to 0.6 | 0.06 to 0.6 | –
7 | CC[C@H]1C(=O)Nc2cnc(NCc3cnn(Cc4ccc(F)cc4)c3)nc2N1C [Compound 9, (7S)-7-ethyl-2-(((1-(4-fluorobenzyl)-1H-pyrazol-4-yl)methyl)amino)-8-methyl-7,8-dihydropteridin-6(5H)-one] | 0.06 to 0.6 | 0.06 to 0.6 | –
8 | CC[C@H]1C(=O)Nc2c(C)nc(NCc3cnn(Cc4ccc(C(F)(F)F)nc4)c3)nc2N1C [Compound 186, (7S)-7-ethyl-4,8-dimethyl-2-(((1-((6-(trifluoromethyl)pyridin-3-yl)methyl)-1H-pyrazol-4-yl)methyl)amino)-7,8-dihydropteridin-6(5H)-one] | 0.06 to 0.6 | < 0.06 | –
9 | Cc1nc(NCc2cn(Cc3ccc(C(F)(F)F)nc3)nc2Br)nc2c1NC(=O)[C@H](C)N2C [Compound 412, (S)-2-(((3-bromo-1-((6-(trifluoromethyl)pyridin-3-yl)methyl)-1H-pyrazol-4-yl)methyl)amino)-4,7,8-trimethyl-7,8-dihydropteridin-6(5H)-one] | < 0.06 | 0.06 to 0.6 | –
10 | Cc1nc(N[C@H]2C[C@@H](Sc3ccc(F)cc3)C2)nc2c1N(C)C(=O)[C@H](C)N2C [Compound 305, (7S)-2-((cis-3-((4-fluorophenyl)thio)cyclobutyl)amino)-4,5,7,8-tetramethyl-7,8-dihydropteridin-6(5H)-one] | 0.06 to 0.6 | 0.06 to 0.6 | –
11 | Cc1nc(N[C@H]2CC[C@H](Oc3ccc(C(F)(F)F)nc3)C2)nc2c1NC(=O)[C@H](C)N2C (single isomer, unassigned) [Compound 376] | 0.06 to 0.6 | 0.06 to 0.6 | –
12 | Cc1nc(N[C@H]2C[C@H](Sc3cc(F)c(F)c(F)c3)C2)nc2c1NC(=O)[C@H](C)N2C [Compound 329, (7S)-4,7,8-trimethyl-2-((trans-3-((3,4,5-trifluorophenyl)thio)-cyclobutyl)amino)-7,8-dihydropteridin-6(5H)-one] | 0.06 to 0.6 | < 0.06 | –
13 | Cc1nc(NCc2cnn(Cc3ccc(F)cc3)c2)nc2c1NC(=O)[C@H](C)N2C [Compound 4, (7S)-2-(((1-(4-fluorobenzyl)-1H-pyrazol-4-yl)methyl)amino)-4,7,8-trimethyl-7,8-dihydropteridin-6(5H)-one] | 0.06 to 0.6 | < 0.06 | –
